{"source": "patent US20070072181A1", "about": "(priority 2003, published 2007)", "test_system": "VSV", "format": "cell-based", "note": "Like-named read-outs stand apart in the source and are kept apart here.", "data": [{"smiles": "Cc1ccc(=O)n(-c2ccccc2)c1", "note": "[PD, 5-methyl-1-phenyl-2-(1H)-pyridone]", "values": [{"measurement": "Mean (Means for Oneway Anova; antiviral effect)", "setting": "0.001 ng interferon + 3 μg pirfenidone (PD), HeLa, VSV", "value": 0.6002}, {"measurement": "Mean (Means for Oneway Anova; antiviral effect)", "setting": "0.001 ng interferon + 30 μg pirfenidone (PD), HeLa, VSV", "value": 0.543}, {"measurement": "Mean (Means for Oneway Anova; antiviral effect)", "setting": "0.001 ng interferon + 300 μg pirfenidone (PD), HeLa, VSV", "value": 0.3705}, {"measurement": "Mean (Means for Oneway Anova; antiviral effect)", "setting": "0.0049 ng interferon + 3 μg pirfenidone (PD), HeLa, VSV", "value": 0.407}, {"measurement": "Mean (Means for Oneway Anova; antiviral effect)", "setting": "0.0049 ng interferon + 30 μg pirfenidone (PD), HeLa, VSV", "value": 0.3033}, {"measurement": "Mean (Means for Oneway Anova; antiviral effect)", "setting": "0.0049 ng interferon + 300 μg pirfenidone (PD), HeLa, VSV", "value": 0.1915}, {"measurement": "Mean (Means for Oneway Anova; antiviral effect)", "setting": "0.019 ng interferon + 3 μg pirfenidone (PD), HeLa, VSV", "value": 0.519}, {"measurement": "Mean (Means for Oneway Anova; antiviral effect)", "setting": "0.019 ng interferon + 30 μg pirfenidone (PD), HeLa, VSV", "value": 0.284}, {"measurement": "Mean (Means for Oneway Anova; antiviral effect)", "setting": "0.019 ng interferon + 300 μg pirfenidone (PD), HeLa, VSV", "value": 0.1785}, {"measurement": "Mean (Means for Oneway Anova; antiviral effect)", "setting": "0.076 ng interferon + 3 μg pirfenidone (PD), HeLa, VSV", "value": 0.68}, {"measurement": "Mean (Means for Oneway Anova; antiviral effect)", "setting": "0.076 ng interferon + 30 μg pirfenidone (PD), HeLa, VSV", "value": 0.4505}, {"measurement": "Mean (Means for Oneway Anova; antiviral effect)", "setting": "0.076 ng interferon + 300 μg pirfenidone (PD), HeLa, VSV", "value": 0.1938}, {"measurement": "Mean (Means for Oneway Anova; antiviral effect)", "setting": "0.3 ng interferon + 3 μg pirfenidone (PD), HeLa, VSV", "value": 0.5563}, {"measurement": "Mean (Means for Oneway Anova; antiviral effect)", "setting": "0.3 ng interferon + 30 μg pirfenidone (PD), HeLa, VSV", "value": 0.4298}, {"measurement": "Mean (Means for Oneway Anova; antiviral effect)", "setting": "0.3 ng interferon + 300 μg pirfenidone (PD), HeLa, VSV", "value": 0.1948}, {"measurement": "Mean (Means for Oneway Anova; antiviral effect)", "setting": "1.2 ng interferon + 3 μg pirfenidone (PD), HeLa, VSV", "value": 0.306}, {"measurement": "Mean (Means for Oneway Anova; antiviral effect)", "setting": "1.2 ng interferon + 30 μg pirfenidone (PD), HeLa, VSV", "value": 0.4248}, {"measurement": "Mean (Means for Oneway Anova; antiviral effect)", "setting": "1.2 ng interferon + 300 μg pirfenidone (PD), HeLa, VSV", "value": 0.1872}, {"measurement": "Mean (Means for Oneway Anova; antiviral effect)", "setting": "4.8 ng interferon + 3 μg pirfenidone (PD), HeLa, VSV", "value": 0.245}, {"measurement": "Mean (Means for Oneway Anova; antiviral effect)", "setting": "4.8 ng interferon + 30 μg pirfenidone (PD), HeLa, VSV", "value": 0.3757}, {"measurement": "Mean (Means for Oneway Anova; antiviral effect)", "setting": "4.8 ng interferon + 300 μg pirfenidone (PD), HeLa, VSV", "value": 0.325}, {"measurement": "Mean (Means for Oneway Anova; antiviral effect)", "setting": "19 ng interferon + 3 μg pirfenidone (PD), HeLa, VSV", "value": 0.979}, {"measurement": "Mean (Means for Oneway Anova; antiviral effect)", "setting": "19 ng interferon + 30 μg pirfenidone (PD), HeLa, VSV", "value": 0.2968}, {"measurement": "Mean (Means for Oneway Anova; antiviral effect)", "setting": "19 ng interferon + 300 μg pirfenidone (PD), HeLa, VSV", "value": 0.4105}, {"measurement": "effect on the antiviral effects of interferon", "setting": "low doses of Pirfenidone with interferon, HeLa, VSV", "value": "enhance the antiviral effects of interferon"}, {"measurement": "effect on viral growth in combination with IFN-α", "setting": "low doses of pirfenidone in combination therapy with IFN-α", "value": "synergistic effect on reducing viral growth"}]}]}
